Each structure is given as a SMILES string. Some results are limits rather than exact numbers.

What all share (assay type): cell-based
Experiment [1] addresses T1, pERK1/2 (Thr202/Tyr204), PANC-1 (KRAS G121D) (Homo sapiens, UniProt P01116, G12D).
T1 construct: pERK1/2 HTRF read-out
In words: Assay of intracellular pERK1/2 (Thr202/Tyr204) phosphorylation in PANC-1 cells (KRAS G12D). As to conditions: pERK1/2, 2 days, read-out: PANC-1 (KRAS G12D) IC50. In a few lines: (§1)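 HTRF detection of Thr202/Tyr204-phosphorylated ERK1/2 (665/615 nm ratio) in lysates from cells treated 2 days with serially 3-fold diluted compound.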

Experiment [2] deals with T2, pERK1/2 (Thr202/Tyr204), NCI-1H441 (KRAS G12V) (Homo sapiens, UniProt P01116, G12V).
T2 construct: pERK1/2 HTRF read-out
T2 sequence (P01116 1-188 isoform P01116-2 G12V): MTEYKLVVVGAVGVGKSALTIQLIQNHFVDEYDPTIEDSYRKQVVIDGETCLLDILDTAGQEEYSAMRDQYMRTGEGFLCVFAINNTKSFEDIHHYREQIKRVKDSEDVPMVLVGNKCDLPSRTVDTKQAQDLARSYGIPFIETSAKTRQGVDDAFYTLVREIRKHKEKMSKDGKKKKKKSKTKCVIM
In words: Assay of intracellular pERK1/2 (Thr202/Tyr204) phosphorylation in NCI-H441 cells (KRAS G12V). As to conditions: pERK1/2, 2 days, read-out: NCI-H441 (KRAS G12V) IC50. In a few lines: as §1

Experiment [3] deals with T3, pERK1/2 (Thr202/Tyr204), NCI-1H358 (KRAS G12C) (Homo sapiens, UniProt P01116, G12C).
T3 construct: pERK1/2 HTRF read-out
T3 sequence (P01116 1-188 isoform P01116-2 G12C): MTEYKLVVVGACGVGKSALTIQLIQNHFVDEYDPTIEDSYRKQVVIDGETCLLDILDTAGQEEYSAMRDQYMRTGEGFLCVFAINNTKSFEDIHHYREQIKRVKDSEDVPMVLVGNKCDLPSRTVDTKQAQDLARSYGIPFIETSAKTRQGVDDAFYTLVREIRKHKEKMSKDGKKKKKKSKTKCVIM
The experiment is described as follows: Assay of intracellular pERK1/2 (Thr202/Tyr204) phosphorylation in NCI-H358 cells (KRAS G12C). Particulars: pERK1/2, 2 days, read-out: NCI-H358 (KRAS G12C) IC50. In a few lines:
as §1

T1 sequence (P01116 1-188 isoform P01116-2 G12D): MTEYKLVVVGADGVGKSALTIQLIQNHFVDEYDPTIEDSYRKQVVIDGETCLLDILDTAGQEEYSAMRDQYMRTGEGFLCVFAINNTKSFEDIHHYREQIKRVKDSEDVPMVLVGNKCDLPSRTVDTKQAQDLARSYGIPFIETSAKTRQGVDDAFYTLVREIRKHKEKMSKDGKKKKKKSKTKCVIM

As for `CC(c1cccnc1N)N1CCOc2nc(-c3cc(N)cc(F)c3C(F)(F)F)c(F)c3nc(OC[C@@]45CCCN4C[C@H](F)C5)nc1c23` (single isomer, unassigned) [Compound 89, 3-((R or S)-1-(5-(5-amino-3-fluoro-2-(trifluoromethyl)phenyl)-4-fluoro-2-(((2R,7aS)-2-fluorotetrahydro-1H-pyrrolizin-7a(5H)-yl)methoxy)-8,9-dihydro-10H-7-oxa-1,3,6,10-tetraazacyclohepta[de]naphthalen-10-yl)ethyl)pyridin-2-amine], the IC50 (usually the concentration that inhibits the measured activity by half) in experiment [1] is over 100 nM; in experiment [2], 43 nM; in experiment [3], 26 nM.
The like results for `CC(c1cccnc1N)N1CCOc2nc(-c3cc(N)cc(F)c3C(F)(F)F)c(F)c3nc(OC[C@@H]4CCCN4C)nc1c23` (single isomer, unassigned) [Compound 90, 3-((R or S)-1-(5-(5-amino-3-fluoro-2-(trifluoromethyl)phenyl)-4-fluoro-2-(((S)-1-methylpyrrolidin-2-yl)methoxy)-8,9-dihydro-10H-7-oxa-1,3,6,10-tetraazacyclohepta[de]naphthalen-10-yl)ethyl)pyridin-2-amine] were, in that order, 91 nM, 6 nM and 2 nM.
The matching figures for `CC(c1cccnc1N)N1CCOc2nc(-c3cc(N)cc(F)c3C(F)(F)F)c(F)c3nc(OC[C@@H]4CCCN4C)nc1c23` (single isomer, unassigned) [Compound 91, 3-((R or S)-1-(5-(5-amino-3-fluoro-2-(trifluoromethyl)phenyl)-4-fluoro-2-(((S)-1-methylpyrrolidin-2-yl)methoxy)-8,9-dihydro-10H-7-oxa-1,3,6,10-tetraazacyclohepta[de]naphthalen-10-yl)ethyl)pyridin-2-amine]: over 100 nM, over 100 nM and over 100 nM.
The matching figures for `CC(c1cccnc1N)N1CCOc2nc(-c3cc(N)cc(F)c3C(F)(F)F)c(F)c3nc(OC[C@@H]4C[C@@H](F)CN4C)nc1c23` (single isomer, unassigned) [Compound 92, 3-((R or S)-1-(5-(5-amino-3-fluoro-2-(trifluoromethyl)phenyl)-4-fluoro-2-(((2S,4R)-4-fluoro-1-methylpyrrolidin-2-yl)methoxy)-8,9-dihydro-10H-7-oxa-1,3,6,10-tetraazacyclohepta[de]naphthalen-10-yl)ethyl)pyridin-2-amine]: 58 nM, 2 nM and 1 nM.
Regarding `CC(c1cccnc1N)N1CCOc2nc(-c3cc(N)cc(F)c3C(F)(F)F)c(F)c3nc(OC[C@@H]4C[C@@H](F)CN4C)nc1c23` (single isomer, unassigned) [Compound 93, 3-((R or S)-1-(5-(5-amino-3-fluoro-2-(trifluoromethyl)phenyl)-4-fluoro-2-(((2S,4R)-4-fluoro-1-methylpyrrolidin-2-yl)methoxy)-8,9-dihydro-10H-7-oxa-1,3,6,10-tetraazacyclohepta[de]naphthalen-10-yl)ethyl)pyridin-2-amine], the IC50 in experiment [1], in experiment [2] and in experiment [3] was over 100 nM in each case.
On to `[2H]C([2H])([2H])N1CCC[C@H]1COc1nc2c3c(nc(-c4cc(N)cc(C)c4C(F)(F)F)c(F)c3n1)OCCN2C(C)c1cccnc1N` (single isomer, unassigned) [Compound 95, 3-((R or S)-1-(5-(5-amino-3-methyl-2-(trifluoromethyl)phenyl)-4-fluoro-2-(((S)-1-(methyl-d3)pyrrolidin-2-yl)methoxy)-8,9-dihydro-10H-7-oxa-1,3,6,10-tetraazacyclohepta[de]naphthalen-10-yl)ethyl)pyridin-2-amine], for which the IC50 worked out at 24 nM in experiment [1], 2 nM in experiment [2] and 0.8 nM in experiment [3].
The like results for `[2H]C([2H])([2H])N1CCC[C@H]1COc1nc2c3c(nc(-c4cc(N)cc(C)c4C(F)(F)F)c(F)c3n1)OCCN2C(C)c1cccnc1N` (single isomer, unassigned) [Compound 96, 3-((R or S)-1-(5-(5-amino-3-methyl-2-(trifluoromethyl)phenyl)-4-fluoro-2-(((S)-1-(methyl-d3)pyrrolidin-2-yl)methoxy)-8,9-] were, in that order, over 100 nM, 57 nM and 27 nM.
The like results for `CC(c1cccnc1N)N1CCOc2nc(-c3cc(N)cc(Cl)c3C(F)(F)F)c(F)c3nc(OC[C@@H]4CCCN4C)nc1c23` (single isomer, unassigned) [Compound 98, 3-((R or S)-1-(5-(5-amino-3-chloro-2-(trifluoromethyl)phenyl)-4-fluoro-2-(((S)-1-methylpyrrolidin-2-yl)methoxy)-8,9-dihydro-10H-7-oxa-1,3,6,10-tetraazacyclohepta[de]naphthalen-10-yl)ethyl)pyridin-2-amine] were, in that order, 10 nM, 0.5 nM and 0.3 nM.
The like results for `CC(c1cccnc1N)N1CCOc2nc(-c3cc(N)cc(Cl)c3C(F)(F)F)c(F)c3nc(OC[C@@H]4CCCN4C)nc1c23` (single isomer, unassigned) [Compound 99, 3-((R or S)-1-(5-(5-amino-3-chloro-2-(trifluoromethyl)phenyl)-4-fluoro-2-(((S)-1-methylpyrrolidin-2-yl)methoxy)-8,9-dihydro-10H-7-oxa-1,3,6,10-tetraazacyclohepta[de]naphthalen-10-yl)ethyl)pyridin-2-amine] were, in that order, over 100 nM, 33 nM and 27 nM.
On to `Cc1cc(N)cc(-c2nc3c4c(nc(OC[C@]56CCCN5[C@@H](CO)CC6)nc4c2F)N([C@H](C)c2cccnc2N)CCO3)c1C(F)(F)F` (single isomer, unassigned) [Compound 100, ((3R,7aR)-7a-(((5-(5-amino-3-methyl-2-(trifluoromethyl)phenyl)-10-((R or S)-1-(2-aminopyridin-3-yl)ethyl)-4-fluoro-9,10-dihydro-8H-7-oxa-1,3,6,10-tetraazacyclohepta[de]naphthalen-2-yl)oxy)methyl)hexahydro-1H-pyrrrolizin-3-yl)methanol], for which the figures for the IC50 in experiment [1], in experiment [2] and in experiment [3] were over 100 nM, over 100 nM and 93 nM, respectively.
Regarding `Cc1cc(N)cc(-c2nc3c4c(nc(OC[C@]56CCCN5[C@@H](CO)CC6)nc4c2F)N(C(C)c2cccnc2N)CCO3)c1C(F)(F)F` (single isomer, unassigned) [Compound 101, ((3R,7aR)-7a-(((5-(5-amino-3-methyl-2-(trifluoromethyl)phenyl)-10-((R or S)-1-(2-aminopyridin-3-yl)ethyl)-4-fluoro-9,10-dihydro-8H-7-oxa-1,3,6,10-tetraazacyclohepta[de]naphthalen-2-yl)oxy)methyl)hexahydro-1H-pyrrolizin-3-yl)methanol], the IC50 in experiment [1], in experiment [2] and in experiment [3] was over 100 nM throughout.

Source of the values: patent US20260356851A1, “TRICYCLIC COMPOUNDS AND USES THEREOF” (HUTCHMED LIMITED, priority 2023, published 2026).
